Reference: US20250345309A1, “IMMUNE HEALTH IMPROVERS” (Amazentis SA, priority 2024, published 2025)

Experiment: Laboratory chemistry / biochemical safety analysis
Format: in vivo, human
Experimental: During the baseline and follow-up visits, blood was drawn by a physician or physician's assistant to assess blood biochemistry parameters and haematology. Analysis was performed using clinically validated systems at the University Hospital Frankfurt, Germany.

In the case of `O=c1oc2cc(O)ccc2c2ccc(O)cc12` [Urolithin A], the “Bilirubin (mean ± SD)” value (Group A d 28, 1000 mg/day oral, d 0 0.53 ± 0.31, p 0.28 n.s.) is reported as 0.49 ± 0.26 mg/dL, the “Creatinine (mean ± SD)” value (Group A d 28, 1000 mg/day oral, d 0 0.82 ± 0.13, p 0.80 n.s.) is reported as 0.81 ± 0.11 mg/dL and the “Albumin (mean ± SD)” value (Group A d 28, 1000 mg/day oral, d 0 4.54 ± 0.24, p 0.85 n.s.) is reported as 4.55 ± 0.24 g/dL. The “Uric acid (mean ± SD)” value (Group A d 28, 1000 mg/day oral, d 0 4.86 ± 1.43, p 0.25 n.s.) was 5.04 ± 1.79 mg/dL, the “Total Serum Protein (mean ± SD)” value (Group A d 28, 1000 mg/day oral, d 0 7.02 ± 0.38, p 0.59 n.s.) was 7.06 ± 0.35 g/dL and the “gGT (mean ± SD)” value (Group A d 28, 1000 mg/day oral, d 0 24.60 ± 15.90, p 0.07 n.s.) was 27.13 ± 19.19 U/I. For the same compound, the “AST (mean ± SD)” value (Group A d 28, 1000 mg/day oral, d 0 27.26 ± 11.56, p 0.76 n.s.) was 28.04 ± 16.10 U/I, the “ALT (mean ± SD)” value (Group A d 28, 1000 mg/day oral, d 0 28.00 ± 24.02, p 0.38 n.s.) was 29.44 ± 30.27 U/I and the “HDL cholesterol (mean ± SD)” value (Group A d 28, 1000 mg/day oral, d 0 66.06 ± 13.51, p 0.06 n.s.) was 62.98 ± 17.58 mg/dL. The “AP (mean ± SD)” value (Group A d 28, 1000 mg/day oral, d 0 75.40 ± 20.60, p 0.15 n.s.) was 73.28 ± 19.22 U/I, the “LDL cholesterol (mean ± SD)” value (Group A d 28, 1000 mg/day oral, d 0 136.6 ± 33.95, p 0.89 n.s.) was 136.2 ± 30.56 mg/dL and the “Triglycerides (mean ± SD)” value (Group A d 28, 1000 mg/day oral, d 0 154.0 ± 98.53, p 0.53 n.s.) was 143.2 ± 70.34 mg/dL. The “Total Cholesterol (mean ± SD)” value (Group A d 28, 1000 mg/day oral, d 0 212.5 ± 33.60, p 0.89 n.s.) was 213.0 ± 33.48 mg/dL and the “Changes in metabolic markers, kidney function parameters and liver enzymes” value (after the 28-day intervention period, 1000 mg/day oral) was “No significant changes”.
